Active and inactive are the calls of the source. The calls are words filed in the database; no cut-off is given here.
Assays:
Histamine H4 receptor [1] = molecular target: T1, Histamine H4 receptor (Rattus norvegicus, UniProt Q91ZY1); test: (§1) Antagonist activity at rat histamine H4 receptor expressed in HEK293 cells assessed as inhibition of histamine-induced intracellular calcium elevation by FLIPR assay; type: functional, cell-based
BMMC = test: Blockade of histamine-induced morphological changes in BALB/c mouse BMMC by flow cytometry; type: functional, cell-based
Homo sapiens = species on record: Homo sapiens; test: Selectivity ratio of Ki for human histamine H4 receptor to Ki for human histamine H3 receptor
[2] = Protein binding in human; type: ADME, organism-based; settings: in vivo, read-out: PB (converted)
[3] = molecular target: Prostaglandin G/H synthase 1 (Homo sapiens) (UniProt P23219); test: Binding affinity at COX1
Cytochrome P450 2C9 = Cytochrome P450 2C9 (Homo sapiens, UniProt P11712); test: Inhibition of CYP2C9 upto 10 uM; type: ADME
[4] = Selectivity ratio of Ki for human histamine H4 receptor to Ki for adrenergic alpha1 receptor
Histamine H4 receptor [5] = molecular target: T1, Histamine H4 receptor; test: Displacement of [3H]histamine from rat histamine H4 receptor expressed in HEK293 cells; type: cell-based
Liver microsomes [6] = test: Metabolic stability in human liver microsomes; type: ADME, Microsome
[7] = Blood clearance in rat at 10 mg/kg, iv; type: ADME, organism-based; set-up: dose 10 mg/kg, route intravenous; settings: whole blood
[8] = Selectivity ratio of Ki for human histamine H4 receptor to Ki for histamine H1 receptor
Mus musculus [9] = test: Antiinflammatory activity against ip dosed BALB/c mouse assessed as inhibition of zymosan-induced peritonitis after 2 hrs pretreated 30 mins before zymosan challenge; type: functional
[10] = Selectivity ratio of Ki for human histamine H4 receptor to Ki for 5HT1A receptor
[11] = Terminal volume of distribution in rat at 10 mg/kg, iv; type: ADME, organism-based; set-up: dose 10 mg/kg, route intravenous; settings: in vivo, read-out: Vbeta
[12] = molecular target: Cannabinoid receptor 2 (Homo sapiens) (UniProt P34972); test: Binding affinity to CB2 receptor
Liver microsomes [13] = test: Metabolic stability in rat liver microsomes; type: ADME, Microsome
[14] = molecular target: Delta-type opioid receptor (Homo sapiens) (UniProt P41143); test: Binding affinity to delta opioid receptor
[15] = Selectivity ratio of Ki for human histamine H4 receptor to Ki for 5HT1D receptor
[16] = molecular target: Cannabinoid receptor 1 (Homo sapiens) (UniProt P21554); test: Binding affinity to CB1 receptor
[17] = molecular target: Kappa-type opioid receptor (Homo sapiens) (UniProt P41145); test: Binding affinity to kappa opioid receptor
[18] = molecular target: Mu-type opioid receptor (Homo sapiens) (UniProt P35372); test: Binding affinity to mu opioid receptor
[19] = Protein binding in rat; type: ADME, organism-based; settings: in vivo, read-out: PB (converted)
[20] = Selectivity ratio of Ki for human histamine H4 receptor to Ki for dopamine D2 receptor
[21] = molecular target: T2, Prostaglandin G/H synthase 2 (Homo sapiens) (UniProt P35354); test: Binding affinity at COX2
T2 sequence (whole entry): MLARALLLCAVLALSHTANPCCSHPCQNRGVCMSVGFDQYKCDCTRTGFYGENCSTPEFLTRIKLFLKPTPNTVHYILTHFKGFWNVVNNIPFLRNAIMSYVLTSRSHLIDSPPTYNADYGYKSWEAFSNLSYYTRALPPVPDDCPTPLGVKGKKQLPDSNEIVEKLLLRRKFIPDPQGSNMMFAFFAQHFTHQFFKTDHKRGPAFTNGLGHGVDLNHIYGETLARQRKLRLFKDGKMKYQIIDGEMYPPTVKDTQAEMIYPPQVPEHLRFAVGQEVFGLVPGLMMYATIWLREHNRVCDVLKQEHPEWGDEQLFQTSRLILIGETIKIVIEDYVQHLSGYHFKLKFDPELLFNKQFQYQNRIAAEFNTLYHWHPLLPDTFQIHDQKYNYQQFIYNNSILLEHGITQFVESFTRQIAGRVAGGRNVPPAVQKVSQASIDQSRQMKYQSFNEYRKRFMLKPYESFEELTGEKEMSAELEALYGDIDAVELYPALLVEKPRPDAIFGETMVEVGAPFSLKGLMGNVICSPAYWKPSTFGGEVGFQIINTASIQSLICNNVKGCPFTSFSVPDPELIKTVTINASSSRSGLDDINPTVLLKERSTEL

[22] = Selectivity ratio of Ki for human histamine H4 receptor to Ki for histamine H2 receptor
Histamine H4 receptor [23] = molecular target: T3, Histamine H4 receptor (Homo sapiens, UniProt Q9H3N8); test: Displacement of [3H]histamine from human histamine H4 receptor expressed in HEK293 cells; type: cell-based; settings: read-out: Ki
[24] = Half life in rat at 10 mg/kg, iv; type: ADME, organism-based; set-up: dose 10 mg/kg, route intravenous; settings: in vivo
Cytochrome P450 3A4 = Cytochrome P450 3A4 (Homo sapiens, UniProt P08684); test: Inhibition of CYP3A4 upto 10 uM; type: ADME
Histamine H4 receptor [25] = molecular target: T4, Histamine H4 receptor (Mus musculus, UniProt Q91ZY2); test: Antagonist activity at mouse histamine H4 receptor expressed in HEK293 cells assessed as inhibition of histamine-induced intracellular calcium elevation by FLIPR assay; type: functional, cell-based
T4 sequence (Q91ZY2 whole entry): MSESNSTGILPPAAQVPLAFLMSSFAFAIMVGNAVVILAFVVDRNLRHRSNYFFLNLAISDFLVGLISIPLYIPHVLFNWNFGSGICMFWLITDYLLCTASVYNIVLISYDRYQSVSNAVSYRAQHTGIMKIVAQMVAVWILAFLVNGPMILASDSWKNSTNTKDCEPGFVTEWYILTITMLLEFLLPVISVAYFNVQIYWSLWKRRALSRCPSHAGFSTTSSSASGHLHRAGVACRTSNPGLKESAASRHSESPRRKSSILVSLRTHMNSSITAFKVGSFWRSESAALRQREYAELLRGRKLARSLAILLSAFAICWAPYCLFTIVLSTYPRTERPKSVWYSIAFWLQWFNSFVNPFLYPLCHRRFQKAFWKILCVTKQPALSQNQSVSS

Cytochrome P450 2D6 = Cytochrome P450 2D6 (Homo sapiens, UniProt P10635); test: Inhibition of CYP2D6 upto 10 uM; type: ADME
[26] = Selectivity ratio of Ki for human histamine H4 receptor to Ki for 5HT2A receptor
Histamine H4 receptor [27] = molecular target: T3, Histamine H4 receptor; settings: HEK293
Mus musculus [28] = test: Inhibition of clobenpropit-induced itching in ip dosed CD1/ICR mouse assessed as blockade of scratching in hind paw for 25 mins pretreated 30 mins before clobenpropit challenge; type: functional
[29] = Metabolic stability in mouse liver microsomes; type: ADME, Microsome
[30] = Fractional bioavailability in rat at 10 mg/kg, iv and 10 mg/kg, po; type: ADME, organism-based; settings: in vivo
[31] = molecular target: Histamine H4 receptor (Mus musculus) (UniProt Q91ZY2); test: Antagonist activity at mouse histamine H4 receptor expressed in HEK293 cells assessed as inhibition of histamine-induced intracellular calcium elevation by FLIPR assay relative to histamine; type: functional, cell-based
[32] = molecular target: Histamine H4 receptor (Rattus norvegicus) (UniProt Q91ZY1); test: as §1; type: functional, cell-based
[33] = Ratio of drug level in brain to plasma in rat at 10 mg/kg, iv after 30 mins; type: ADME, organism-based; set-up: dose 10 mg/kg, route intravenous
Rattus norvegicus = test: Antinociceptive efficacy in ip dosed spinal nerve ligated Sprague-Dawley rat assessed as reduction of neuropathic pain in paw; type: functional
[34] = molecular target: Histamine H4 receptor (Rattus norvegicus) (UniProt Q91ZY1); test: Antagonist activity at rat histamine H4 receptor expressed in HEK293 cells assessed as inhibition of histamine-induced intracellular calcium elevation by FLIPR assay relative to histamine; type: functional, cell-based
[35] = Half life in mouse at 2.5 mg/kg, iv; type: ADME, organism-based; set-up: dose 2.5 mg/kg, route intravenous; settings: in vivo

T3 sequence (Q9H3N8 whole entry): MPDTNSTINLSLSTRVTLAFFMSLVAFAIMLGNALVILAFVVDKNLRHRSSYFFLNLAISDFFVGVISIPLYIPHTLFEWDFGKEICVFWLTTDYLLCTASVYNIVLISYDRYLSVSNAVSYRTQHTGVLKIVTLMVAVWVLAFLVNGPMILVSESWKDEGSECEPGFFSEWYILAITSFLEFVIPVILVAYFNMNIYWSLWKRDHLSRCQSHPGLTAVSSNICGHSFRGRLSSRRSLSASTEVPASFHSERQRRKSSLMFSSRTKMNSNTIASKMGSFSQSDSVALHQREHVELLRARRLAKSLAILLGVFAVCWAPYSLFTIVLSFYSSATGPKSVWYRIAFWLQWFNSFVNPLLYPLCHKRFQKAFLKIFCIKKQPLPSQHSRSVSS
Sequence of Cytochrome P450 3A4 (P08684 whole entry): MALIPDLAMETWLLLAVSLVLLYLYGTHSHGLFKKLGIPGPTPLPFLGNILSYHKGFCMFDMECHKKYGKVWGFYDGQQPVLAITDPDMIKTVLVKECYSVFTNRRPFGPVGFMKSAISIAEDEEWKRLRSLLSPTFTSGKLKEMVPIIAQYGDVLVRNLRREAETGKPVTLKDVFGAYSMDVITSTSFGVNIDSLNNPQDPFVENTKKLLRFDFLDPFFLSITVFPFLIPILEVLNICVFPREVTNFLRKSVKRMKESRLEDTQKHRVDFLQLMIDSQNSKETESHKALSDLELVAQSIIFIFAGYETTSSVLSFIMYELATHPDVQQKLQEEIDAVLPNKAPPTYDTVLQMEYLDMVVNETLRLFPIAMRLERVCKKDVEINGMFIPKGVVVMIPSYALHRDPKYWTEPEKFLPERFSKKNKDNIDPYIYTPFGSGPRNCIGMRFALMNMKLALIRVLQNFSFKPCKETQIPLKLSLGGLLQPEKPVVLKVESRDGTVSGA
Sequence of Cytochrome P450 2C9 (P11712 whole entry): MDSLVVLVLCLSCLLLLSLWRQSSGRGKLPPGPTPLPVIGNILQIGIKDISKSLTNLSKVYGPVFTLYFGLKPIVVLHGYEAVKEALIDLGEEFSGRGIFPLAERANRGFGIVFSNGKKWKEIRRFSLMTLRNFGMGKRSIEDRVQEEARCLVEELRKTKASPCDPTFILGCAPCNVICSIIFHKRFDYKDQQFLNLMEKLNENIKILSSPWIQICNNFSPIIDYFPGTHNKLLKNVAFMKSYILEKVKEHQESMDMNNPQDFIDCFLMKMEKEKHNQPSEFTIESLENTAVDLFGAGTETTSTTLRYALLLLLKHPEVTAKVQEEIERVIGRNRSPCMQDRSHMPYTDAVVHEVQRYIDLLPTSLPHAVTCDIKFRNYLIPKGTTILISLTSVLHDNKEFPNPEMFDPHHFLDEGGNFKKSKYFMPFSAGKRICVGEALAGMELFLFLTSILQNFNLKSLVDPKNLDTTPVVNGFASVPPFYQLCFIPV
Sequence of Cytochrome P450 2D6 (P10635 whole entry): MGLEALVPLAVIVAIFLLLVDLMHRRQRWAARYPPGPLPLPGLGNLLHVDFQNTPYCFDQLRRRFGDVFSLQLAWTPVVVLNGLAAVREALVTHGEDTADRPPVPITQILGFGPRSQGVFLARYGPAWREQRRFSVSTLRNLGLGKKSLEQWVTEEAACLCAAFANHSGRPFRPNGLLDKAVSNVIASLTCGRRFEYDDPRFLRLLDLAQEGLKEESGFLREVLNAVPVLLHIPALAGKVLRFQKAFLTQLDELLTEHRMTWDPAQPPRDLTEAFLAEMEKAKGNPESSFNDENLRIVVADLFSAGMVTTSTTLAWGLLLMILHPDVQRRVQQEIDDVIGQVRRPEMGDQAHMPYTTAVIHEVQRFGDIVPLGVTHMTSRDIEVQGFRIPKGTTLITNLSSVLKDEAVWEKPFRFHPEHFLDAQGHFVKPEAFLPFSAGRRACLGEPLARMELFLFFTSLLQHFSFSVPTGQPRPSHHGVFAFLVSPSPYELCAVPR
Sequence of Histamine H4 receptor (Rattus norvegicus) (Q91ZY1 whole entry): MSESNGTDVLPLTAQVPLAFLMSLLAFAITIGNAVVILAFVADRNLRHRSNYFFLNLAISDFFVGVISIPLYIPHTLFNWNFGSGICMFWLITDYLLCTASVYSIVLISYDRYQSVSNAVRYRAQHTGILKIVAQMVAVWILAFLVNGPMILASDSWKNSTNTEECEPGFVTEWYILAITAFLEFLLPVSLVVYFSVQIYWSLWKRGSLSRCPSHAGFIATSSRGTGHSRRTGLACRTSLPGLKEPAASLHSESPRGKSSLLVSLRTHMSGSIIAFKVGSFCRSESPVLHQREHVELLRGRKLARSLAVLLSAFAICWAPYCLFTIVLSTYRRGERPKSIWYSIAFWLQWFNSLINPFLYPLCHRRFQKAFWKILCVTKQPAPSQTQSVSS
T1 sequence (Q91ZY1 whole entry): as above
Sequence of Cannabinoid receptor 2 (Homo sapiens) (P34972 whole entry): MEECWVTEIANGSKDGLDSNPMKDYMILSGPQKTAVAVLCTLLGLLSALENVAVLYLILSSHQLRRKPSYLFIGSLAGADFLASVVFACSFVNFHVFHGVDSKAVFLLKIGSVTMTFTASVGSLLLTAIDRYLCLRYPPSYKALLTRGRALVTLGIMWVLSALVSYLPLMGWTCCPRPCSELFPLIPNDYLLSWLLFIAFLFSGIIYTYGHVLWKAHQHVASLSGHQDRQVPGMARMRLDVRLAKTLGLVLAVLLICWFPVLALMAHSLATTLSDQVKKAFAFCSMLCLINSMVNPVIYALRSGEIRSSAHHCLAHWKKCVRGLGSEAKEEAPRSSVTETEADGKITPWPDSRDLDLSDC
Sequence of Cannabinoid receptor 1 (Homo sapiens) (P21554 whole entry): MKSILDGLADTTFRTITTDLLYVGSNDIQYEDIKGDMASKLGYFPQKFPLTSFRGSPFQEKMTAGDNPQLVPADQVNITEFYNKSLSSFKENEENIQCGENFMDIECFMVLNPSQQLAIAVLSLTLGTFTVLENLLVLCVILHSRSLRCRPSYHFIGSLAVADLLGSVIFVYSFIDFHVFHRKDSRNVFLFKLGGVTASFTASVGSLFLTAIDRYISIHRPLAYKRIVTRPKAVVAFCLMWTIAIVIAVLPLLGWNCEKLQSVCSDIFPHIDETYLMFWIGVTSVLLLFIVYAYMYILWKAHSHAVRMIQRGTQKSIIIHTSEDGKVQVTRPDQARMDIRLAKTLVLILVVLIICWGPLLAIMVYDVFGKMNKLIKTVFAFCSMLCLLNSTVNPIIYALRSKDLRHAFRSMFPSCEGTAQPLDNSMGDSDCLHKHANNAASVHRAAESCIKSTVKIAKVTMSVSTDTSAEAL
Sequence of Mu-type opioid receptor (Homo sapiens) (P35372 whole entry): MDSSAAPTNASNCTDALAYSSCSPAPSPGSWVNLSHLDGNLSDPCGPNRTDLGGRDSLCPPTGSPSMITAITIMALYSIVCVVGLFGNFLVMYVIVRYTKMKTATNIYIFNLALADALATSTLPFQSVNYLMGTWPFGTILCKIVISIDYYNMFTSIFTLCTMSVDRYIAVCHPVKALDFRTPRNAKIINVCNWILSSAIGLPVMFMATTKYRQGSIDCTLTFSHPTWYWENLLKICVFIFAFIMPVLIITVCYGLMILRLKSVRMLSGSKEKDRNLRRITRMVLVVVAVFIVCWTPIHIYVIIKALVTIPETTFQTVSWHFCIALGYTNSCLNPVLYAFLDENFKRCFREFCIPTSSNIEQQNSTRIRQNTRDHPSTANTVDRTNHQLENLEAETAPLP
Sequence of Prostaglandin G/H synthase 1 (Homo sapiens) (P23219 whole entry): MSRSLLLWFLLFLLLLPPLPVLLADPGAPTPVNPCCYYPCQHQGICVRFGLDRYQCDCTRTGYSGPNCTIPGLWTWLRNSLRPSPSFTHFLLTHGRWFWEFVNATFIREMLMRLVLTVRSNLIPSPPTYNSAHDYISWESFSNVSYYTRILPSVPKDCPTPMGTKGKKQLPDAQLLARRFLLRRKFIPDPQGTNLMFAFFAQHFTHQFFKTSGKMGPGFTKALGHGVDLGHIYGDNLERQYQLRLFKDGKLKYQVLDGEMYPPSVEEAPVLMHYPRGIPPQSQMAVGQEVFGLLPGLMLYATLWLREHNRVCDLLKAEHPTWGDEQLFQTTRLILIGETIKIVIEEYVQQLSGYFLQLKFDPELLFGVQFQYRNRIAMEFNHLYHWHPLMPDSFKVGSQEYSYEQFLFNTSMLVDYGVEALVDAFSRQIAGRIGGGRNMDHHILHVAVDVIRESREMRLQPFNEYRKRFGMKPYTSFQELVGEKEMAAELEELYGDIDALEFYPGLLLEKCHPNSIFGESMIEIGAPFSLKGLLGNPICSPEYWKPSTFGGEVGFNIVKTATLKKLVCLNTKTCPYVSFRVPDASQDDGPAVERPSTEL
Sequence of Delta-type opioid receptor (Homo sapiens) (P41143 whole entry): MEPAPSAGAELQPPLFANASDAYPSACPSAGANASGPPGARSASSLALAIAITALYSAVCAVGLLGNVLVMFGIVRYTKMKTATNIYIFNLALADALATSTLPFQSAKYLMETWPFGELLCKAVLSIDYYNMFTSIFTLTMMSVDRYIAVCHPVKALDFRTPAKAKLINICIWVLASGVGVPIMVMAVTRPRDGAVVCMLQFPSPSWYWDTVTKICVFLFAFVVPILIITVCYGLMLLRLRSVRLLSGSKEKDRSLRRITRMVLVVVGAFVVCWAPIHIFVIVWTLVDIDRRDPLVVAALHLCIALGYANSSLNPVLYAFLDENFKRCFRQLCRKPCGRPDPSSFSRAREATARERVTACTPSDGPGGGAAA
Sequence of Kappa-type opioid receptor (Homo sapiens) (P41145 whole entry): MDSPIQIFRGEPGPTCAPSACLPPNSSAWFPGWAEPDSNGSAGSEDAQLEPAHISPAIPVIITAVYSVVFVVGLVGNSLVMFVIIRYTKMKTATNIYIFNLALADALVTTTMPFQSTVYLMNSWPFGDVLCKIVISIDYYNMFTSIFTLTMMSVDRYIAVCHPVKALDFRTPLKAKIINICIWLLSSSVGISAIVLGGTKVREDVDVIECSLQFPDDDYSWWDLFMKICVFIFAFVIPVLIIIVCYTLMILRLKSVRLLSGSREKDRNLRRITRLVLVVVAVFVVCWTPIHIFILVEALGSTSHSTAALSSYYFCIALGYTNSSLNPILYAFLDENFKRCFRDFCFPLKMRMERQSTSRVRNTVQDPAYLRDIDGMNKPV

SMILES	Activity (BMMC)	Ratio Ki (Homo sapiens)	fraction unbound [2]	Activity (Cytochrome P450 2C9)	Ratio Ki [4]	Stability (Liver microsomes [6]) [pmol/min/mg]	clearance [7] [mL/min/kg]	Ratio Ki [8]	ED50 (Mus musculus [9]) [µmol/kg]	Ratio Ki [10]	Vd [11] [L/kg]	Stability (Liver microsomes [13]) [pmol/min/mg]	Ratio Ki [15]	fraction unbound [19]	Ratio Ki [20]	Ratio Ki [22]	Activity (Cytochrome P450 3A4)	Activity (Cytochrome P450 2D6)	pKb (Histamine H4 receptor [27])	Stability [29] [pmol/min/mg]	other results
Nc1nc2c(c(N3CCNCC3)n1)CCCc1ccc(F)cc1-2	Active	470	0.39	Not Active	1220	27.3	60	> 1290	134	3070	18.2	200	850	0.34	> 2000	> 1820	Not Active	Not Active	8.01	32.4	EC50 (Histamine H4 receptor [1]): 6.03 nM; Activity [3]: inactive; Ki (Histamine H4 receptor [5]): 1.45 nM; Activity [12]: inactive; Activity [14]: inactive; Activity [16]: inactive; Activity [17]: inactive; Activity [18]: inactive; Activity [21]: inactive; Ki (Histamine H4 receptor [23]): 5.1 nM; half-life [24]: 3.5 h; EC50 (Histamine H4 receptor [25]): 4.79 nM; Ratio Ki [26]: 765; ED50 (Mus musculus [28]): 10 µmol/kg; bioavailability [30]: 18%
Nc1nc2c(c(N3CCNCC3)n1)CCCCC2c1ccccc1 (stereo not drawn)	Active	56	0.41	Not Active	125	28.5	80	> 160	79	11	22	108	81	0.24	480	> 230	Not Active	Not Active	7.24	10.9	EC50 (Histamine H4 receptor [1]): 55 nM; Ki (Histamine H4 receptor [5]): 4.47 nM; Ki (Histamine H4 receptor [23]): 39.8 nM; half-life [24]: 3.2 h; EC50 (Histamine H4 receptor [25]): 45.7 nM; Ratio Ki [26]: 2.2; ED50 (Mus musculus [28]): 10 µmol/kg; bioavailability [30]: 31%
N#Cc1ccc(-c2cc(N3CCNCC3)nc(N)n2)cc1	–	–	0.93	Not Active	–	6.2	–	–	–	–	–	26.9	–	0.96	–	–	Not Active	Not Active	8.08	23.2	Efficacy [31]: 54%
CN[C@@H]1CCN(c2nc(N)nc3c2CCCCc2ccccc2-3)C1	inactive	–	–	–	–	–	–	–	–	–	–	–	–	–	–	–	–	–	8.15	–	pKb [32]: 7.5
CN1CCN(c2cc(-c3ccc(C#N)cc3)nc(N)n2)CC1	Active	30	0.65	Not Active	330	25.9	172	> 170	66	1.2	7.1	94.5	3.5	0.62	> 140	> 260	Not Active	Not Active	–	43.1	Kp at 0.5 h [33]: 20; ED50 (Rattus norvegicus): 115 µmol/kg; Efficacy [34]: 64%; half-life [35]: 0.2 h; half-life [24]: 0.4 h; Ratio Ki [26]: 120; ED50 (Mus musculus [28]): 25 µmol/kg; bioavailability [30]: 31%
CN[C@@H]1CCN(c2nc(N)nc3c2CCCCCc2ccccc2-3)C1	inactive	–	–	–	–	–	–	–	–	–	–	–	–	–	–	–	–	–	7.6	–	pKb [32]: 7.25
CN[C@@H]1CCN(c2nc(N)nc3c2CCc2ccccc2-3)C1	–	–	–	–	–	–	–	–	–	–	–	–	–	–	–	–	–	–	8.29	–	pKb [32]: 7.66

Source: ChEMBL document CHEMBL1140165, “Rotationally constrained 2,4-diamino-5,6-disubstituted pyrimidines: a new class of histamine H4 receptor antagonists with improved druglikeness and in vivo efficacy in pain and inflammation models” (J Med Chem, 2008)
